Source: the supplement of paper PMC10307832

Assays:
Experiment in all cases: relative viability (nuclei count vs DMSO), 5 days (fraction); higher = more cells survive
NCI-H460 = system: NCI-H460
In short: (§1)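 Dosing by pin tool came one day after lung cancer cell lines were seeded in 1536-well plates, using either one drug or a fixed anchor-drug dose plus five library-drug doses (not always all listed) in √10 steps. After 5 days, nuclei were counted on 4× images. Relative viability is treated-well nuclei count divided by vehicle-well nuclei count, and values are medians of duplicate plates.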

NCI-H1944 = system: NCI-H1944
In short: as §1

NCI-H1651 = system: NCI-H1651
In short: as §1

NCI-H520 = system: NCI-H520
In short: as §1

BEN = system: BEN
In short: as §1

NCI-H596 = system: NCI-H596
In short: as §1

NCI-H838 = system: NCI-H838
In short: as §1

NCI-H2085 = system: NCI-H2085
In short: as §1

NCI-H661 = system: NCI-H661
In short: as §1

LOU-NH91 = system: LOU-NH91
In short: as §1

NCI-H2126 = system: NCI-H2126
In short: as §1

LCLC-103H = system: LCLC-103H
In short: as §1

HARA = system: HARA
In short: as §1

NCI-H1975 = system: NCI-H1975
In short: as §1

NCI-H647 = system: NCI-H647
In short: as §1

SW 900 = system: SW 900
In short: as §1

A-427 = system: A-427
In short: as §1

NCI-H1734 = system: NCI-H1734
In short: as §1

NCI-H727 = system: NCI-H727
In short: as §1

CAL-12T = system: CAL-12T
In short: as §1

RERF-LC-KJ = system: RERF-LC-KJ
In short: as §1

NCI-H1666 = system: NCI-H1666
In short: as §1

ABC-1 = system: ABC-1
In short: as §1

For CN1CCN(CCOc2cc(OC3CCOCC3)c3c(Nc4c(Cl)ccc5c4OCO5)ncnc3c2)CC1 [Saracatinib] + Cc1cc(Nc2cc(N3CCN(C)CC3)nc(Sc3ccc(NC(=O)C4CC4)cc3)n2)n[nH]1 [Tozasertib] (partner 0.1 µM), the relative viability (NCI-H460; first compound 0.02 µM) was 0.407, the relative viability (NCI-H460; first compound 0.2 µM) was 0.397 and the relative viability (NCI-H460; first compound 0.6325 µM) was 0.433. For the same molecule, the relative viability (NCI-H460; first compound 2 µM) was 0.279, the relative viability (NCI-H1944; first compound 0.02 µM) was 0.23 and the relative viability (NCI-H1944; first compound 0.6325 µM) was 0.227. For the same molecule, the relative viability (NCI-H1944; first compound 2 µM) was 0.169, the relative viability (NCI-H1651; first compound 0.02 µM) was 0.71 and the relative viability (NCI-H1651; first compound 0.2 µM) was 0.555. The relative viability (NCI-H1651; first compound 0.6325 µM) was 0.691, the relative viability (NCI-H1651; first compound 2 µM) was 0.625 and the relative viability (NCI-H520; first compound 0.02 µM) was 0.407. The relative viability (NCI-H520; first compound 0.6325 µM) was 0.383, the relative viability (NCI-H520; first compound 2 µM) was 0.314 and the relative viability (BEN; first compound 0.02 µM) was 0.518. For the same molecule, the relative viability (BEN; first compound 0.2 µM) was 0.477, the relative viability (BEN; first compound 0.6325 µM) was 0.458 and the relative viability (BEN; first compound 2 µM) was 0.419. It also gave a relative viability (NCI-H596; first compound 0.02 µM) of 0.8, a relative viability (NCI-H596; first compound 0.2 µM) of 0.847 and a relative viability (NCI-H596; first compound 0.6325 µM) of 1.07. For the same molecule, the relative viability (NCI-H596; first compound 2 µM) was 0.708, the relative viability (NCI-H838; first compound 0.02 µM) was 0.243 and the relative viability (NCI-H838; first compound 0.2 µM) was 0.241. For the same molecule, the relative viability (NCI-H838; first compound 0.6325 µM) was 0.264, the relative viability (NCI-H838; first compound 2 µM) was 0.246 and the relative viability (NCI-H2085; first compound 0.02 µM) was 0.816. The relative viability (NCI-H2085; first compound 0.2 µM) was 0.676, the relative viability (NCI-H2085; first compound 0.6325 µM) was 0.722 and the relative viability (NCI-H2085; first compound 2 µM) was 0.707. It also gave a relative viability (NCI-H661; first compound 0.02 µM) of 0.36, a relative viability (NCI-H661; first compound 0.2 µM) of 0.308 and a relative viability (NCI-H661; first compound 0.6325 µM) of 0.342. It also gave a relative viability (NCI-H661; first compound 2 µM) of 0.328, a relative viability (LOU-NH91; first compound 0.02 µM) of 0.655 and a relative viability (LOU-NH91; first compound 0.2 µM) of 0.449. For the same molecule, the relative viability (LOU-NH91; first compound 0.6325 µM) was 0.476, the relative viability (LOU-NH91; first compound 2 µM) was 0.42 and the relative viability (NCI-H2126; first compound 0.02 µM) was 0.819. The relative viability (NCI-H2126; first compound 0.2 µM) was 0.846, the relative viability (NCI-H2126; first compound 0.6325 µM) was 0.815 and the relative viability (NCI-H2126; first compound 2 µM) was 0.648. For the same molecule, the relative viability (LCLC-103H; first compound 0.02 µM) was 0.46, the relative viability (LCLC-103H; first compound 0.2 µM) was 0.465 and the relative viability (LCLC-103H; first compound 0.6325 µM) was 0.465. For the same molecule, the relative viability (LCLC-103H; first compound 2 µM) was 0.454, the relative viability (HARA; first compound 0.02 µM) was 0.118 and the relative viability (HARA; first compound 0.2 µM) was 0.0998. For the same molecule, the relative viability (HARA; first compound 0.6325 µM) was 0.0847, the relative viability (HARA; first compound 2 µM) was 0.0726 and the relative viability (NCI-H1975; first compound 0.02 µM) was 0.697. It also gave a relative viability (NCI-H1975; first compound 0.2 µM) of 0.709, a relative viability (NCI-H1975; first compound 0.6325 µM) of 0.675 and a relative viability (NCI-H1975; first compound 2 µM) of 0.33. The relative viability (NCI-H647; first compound 0.02 µM) was 0.257, the relative viability (NCI-H647; first compound 0.2 µM) was 0.293 and the relative viability (NCI-H647; first compound 0.6325 µM) was 0.275. For the same molecule, the relative viability (NCI-H647; first compound 2 µM) was 0.231, the relative viability (SW 900; first compound 0.02 µM) was 0.546 and the relative viability (SW 900; first compound 0.2 µM) was 0.533. For the same molecule, the relative viability (SW 900; first compound 0.6325 µM) was 0.645, the relative viability (SW 900; first compound 2 µM) was 0.532 and the relative viability (A-427; first compound 0.02 µM) was 0.215. It also gave a relative viability (A-427; first compound 0.2 µM) of 0.18, a relative viability (A-427; first compound 0.6325 µM) of 0.207 and a relative viability (A-427; first compound 2 µM) of 0.206. The relative viability (NCI-H1734; first compound 0.02 µM) was 0.305, the relative viability (NCI-H1734; first compound 0.6325 µM) was 0.261 and the relative viability (NCI-H1734; first compound 2 µM) was 0.24. It also gave a relative viability (NCI-H727; first compound 0.02 µM) of 0.618, a relative viability (NCI-H727; first compound 0.2 µM) of 0.506 and a relative viability (NCI-H727; first compound 0.6325 µM) of 0.525. It also gave a relative viability (NCI-H727; first compound 2 µM) of 0.454, a relative viability (CAL-12T; first compound 0.02 µM) of 0.361 and a relative viability (CAL-12T; first compound 0.2 µM) of 0.387. The relative viability (CAL-12T; first compound 0.6325 µM) was 0.283, the relative viability (CAL-12T; first compound 2 µM) was 0.194 and the relative viability (RERF-LC-KJ; first compound 0.02 µM) was 0.52. It also gave a relative viability (RERF-LC-KJ; first compound 0.2 µM) of 0.465, a relative viability (RERF-LC-KJ; first compound 0.6325 µM) of 0.497 and a relative viability (RERF-LC-KJ; first compound 2 µM) of 0.363. For the same molecule, the relative viability (NCI-H1666; first compound 0.02 µM) was 0.648, the relative viability (NCI-H1666; first compound 0.2 µM) was 0.607 and the relative viability (NCI-H1666; first compound 0.6325 µM) was 0.66. For the same molecule, the relative viability (NCI-H1666; first compound 2 µM) was 0.625, the relative viability (ABC-1; first compound 0.02 µM) was 0.157 and the relative viability (ABC-1; first compound 0.2 µM) was 0.164. The relative viability (ABC-1; first compound 0.6325 µM) was 0.169 and the relative viability (ABC-1; first compound 2 µM) was 0.14.
